Data: patent US20060287533A1, “SOLVENT CONTAINING 1,2,5-THIADIAZOLE COMPOUND, AND METHOD FOR EXTRACTING AN ORGANIC COMPOUND USING THE SOLVENT” (Waseda University, priority 2004, published 2006)

Experiments:
Format in all cases: physicochemical
[1] = Separatory funnel phase separation of 1,2,5-thiadiazole and water; details: 10 ml 1,2,5-thiadiazole and 10 ml water, shaken vigorously, allowed to stand
Protocol: A 10 ml of 1,2,5-thiadiazole and 10 ml of water were put into a separatory funnel, and the system was shaken vigorously, to be allowed to stand.

[2] = Compatibility of 1,2,5-thiadiazole with other solvents; set-up: key: ◯: Circle: fully compatible to give a uniform mixture; Triangle: giving a white turbidity; X-mark: being divided into two phases; details: 1,2,5-thiadiazole mixed with the listed solvent at volume ratio 1/1 (2 ml), room temperature, visual inspection
Protocol: For 1,2,5-thiadiazole of the present invention, its compatibility with other solvents was studied. The test consisted of mixing 1,2,5-thiadiazole with another solvent at a volume ratio of 1/1 (2 ml), allowing the system to stand at room temperature, and visually inspecting the compatibility of the former with the latter.
Circle: fully compatible to give a uniform mixture
Triangle: giving a white turbidity
X-mark: being divided into two phases

[3] = Extracting activity: partition of compound between water phase and organic phase (TLC); details: for Ratio of content of compound in water phase against organic phase (Example 4): 2 mg compound in 100 μl 1,2,5-thiadiazole + 100 μl distilled water; for Ratio of content of compound in water phase against organic phase (Comp. Ex. 3): 2 mg compound in 100 μl chloroform + 100 μl distilled water; for Ratio of content of compound in water phase against organic phase (Comp. Ex. 4): 2 mg compound in 100 μl diethylether + 100 μl distilled water
Protocol: The extracting activity of 1,2,5-thiadiazole of the present invention was studied. A 2 mg of each of compounds 1 to 20 was dissolved in 100 μl of 1,2,5-thiadiazole, to which 100 μl of distilled water was added, and the system was subjected to separation operation. The ratio of the content of the compound in water phase against the counterpart in organic phase was determined using TLC, and the results are shown in Table 3.
The same procedure as in Example 4 was repeated except that 1,2,5-thiadiazole was replaced with chloroform, to determine the comparative extracting activity of chloroform.
The same procedure as in Example 4 was repeated except that 1,2,5-thiadiazole was replaced with diethylether, to determine the comparative extracting activity of diethylether.

[4] = Dissolving capability: amount of solvent needed to completely dissolve 20 mg of compound; details: 20 mg compound, room temperature; for Addition amount of solvent until compound completely dissolved (Example 3): solvent 1,2,5-thiadiazole, stirring; for Amount of solvent required for completely dissolving the compound (Comp. Ex. 1): solvent chloroform; for Amount of solvent required for completely dissolving the compound (Comp. Ex. 2): solvent diethylether
Protocol: The dissolving capability of 1,2,5-thiadiazole of the present invention was studied. A 20 mg of each of compounds 1 to 20 was transferred into a sample vial, to which 1,2,5-thiadiazole was added at room temperature with stirring. The addition was continued until the compound was completely dissolved, and the addition amount of the solvent was determined.
The same procedure as in Example 3 was repeated except that 1,2,5-thiadiazole was replaced with chloroform. The amount of the solvent required for completely dissolving the compound was determined.
The same procedure as in Example 3 was repeated except that 1,2,5-thiadiazole was replaced with diethylether. The amount of the solvent required for completely dissolving the compound was determined.

| Molecule | Ratio of content of compound in water phase against organic phase (Example 4) [3] | Ratio of content of compound in water phase against organic phase (Comp. Ex. 3) [3] | Ratio of content of compound in water phase against organic phase (Comp. Ex. 4) [3] | Addition amount of solvent until compound completely dissolved (Example 3) [4] | Amount of solvent required for completely dissolving the compound (Comp. Ex. 1) [4] | Amount of solvent required for completely dissolving the compound (Comp. Ex. 2) [4] | Phase separation from water [1] | Compatibility [2] |
| --- | --- | --- | --- | --- | --- | --- | --- | --- |
| 1,2,5-thiadiazole |  |  |  |  |  |  | clearly divided into two phases |  |
| CC(C)=O [Acetone] |  |  |  |  |  |  |  | ◯ |
| CC#N [Acetonitrile] |  |  |  |  |  |  |  | ◯ |
| c1ccccc1 [Benzene] |  |  |  |  |  |  |  | ◯ |
| O=C(O)CNC(=O)OCc1ccccc1 [Compound 5] | 0/100 | 1/5 | 0/100 | 1000 µL | 2000 µL | 2000 µL |  |  |
| CC(C)(C)[Si](C)(C)OCC1=CC2(OCCO2)C(O)C(O)C1=O (stereo not drawn) [Compound 11] |  |  |  | 200 µL | 400 µL | Hardly soluble |  |  |
| CC/C=C(\C)CN1C(=O)OC[C@H]1C(C)C [Compound 12] |  |  |  | 200 µL | 200 µL | 200 µL |  |  |
| CCCCCC(=O)CC(=O)NC1CCOC1=O (stereo not drawn) [Compound 19] |  |  |  | 100 µL | 100 µL | 4800 µL |  |  |
| CN(C)C=O [Dimethylformamide] |  |  |  |  |  |  |  | ◯ |
| CCO [Ethanol] |  |  |  |  |  |  |  | ◯ |
| CCOC(C)=O [Ethyl acetate] |  |  |  |  |  |  |  | ◯ |
| CO [Methanol] |  |  |  |  |  |  |  | ◯ |
| Cc1ccccc1 [Toluene] |  |  |  |  |  |  |  | ◯ |
| O [Water] |  |  |  |  |  |  |  | X |
| CCCCCC [n-Hexane] |  |  |  |  |  |  |  | ◯ |
| Xylene |  |  |  |  |  |  |  | ◯ |

Continued, in another order:

| Ratio of content of compound in water phase against organic phase (Example 4) [3] | Ratio of content of compound in water phase against organic phase (Comp. Ex. 3) [3] | Ratio of content of compound in water phase against organic phase (Comp. Ex. 4) [3] | Addition amount of solvent until compound completely dissolved (Example 3) [4] | Amount of solvent required for completely dissolving the compound (Comp. Ex. 1) [4] | Amount of solvent required for completely dissolving the compound (Comp. Ex. 2) [4] | Molecule | Phase separation from water [1] | Compatibility [2] |
| --- | --- | --- | --- | --- | --- | --- | --- | --- |
| 1/100 | 1/10 | 1/5 | 100 µL | 400 µL | 2000 µL | O=C1Cc2ccccc2N1 [Compound 1] |  |  |
| 0/100 | 1/50 | 1/4 | 140 µL | 240 µL | 1600 µL | CO[C@H]1OC(COCc2ccccc2)[C@H](N=[N+]=[N-])CC1NS(=O)(=O)c1ccc(C)cc1 (stereo partly drawn) [Compound 2] |  |  |
| 1/5 | 4/5 | Hardly soluble | 160 µL | 200 µL | Insoluble | O=C1C(OCc2ccccc2)=C[C@@H](CO)[C@@H]1CO [Compound 3] |  |  |
| 0/100 | Hardly soluble | Hardly soluble | 1000 µL | Hardly soluble | Hardly soluble | COCOc1cc(OCOC)c2c(c1)C(S(=O)(=O)c1ccccc1)OC2=O (stereo not drawn) [Compound 4] |  |  |
| 0/100 | 1/5 | Hardly soluble | 1000 µL | 2000 µL | Hardly soluble | Cc1ccc(S(=O)(=O)OCCC2(CCS(=O)(=O)c3ccccc3)OCCO2)cc1 [Compound 6] |  |  |
| 0/100 | 0/100 | 0/100 | 100 µL | 200 µL | 2000 µL | CC(=O)Oc1ccc(OC(C)=O)c(OC(C)=O)c1 [Compound 7] |  |  |
| 1/15 | 1/15 | 1/15 | 200 µL | 240 µL | 1600 µL | CO[C@H]1OC2COC(c3ccccc3)O[C@H]2C(O)C1NS(=O)(=O)c1ccc(C)cc1 (stereo partly drawn) [Compound 8] |  |  |
| 0/100 | 0/100 | 0/100 | 20 µL | 200 µL | 6000 µL | Cc1ccc(S(=O)(=O)O[C@@H]2C(C)O[C@@H](OCc3ccccc3)C3OC(=O)OC32)cc1 (stereo partly drawn) [Compound 9] |  |  |
| 0/100 | 1/100 | Hardly soluble | 200 µL | 400 µL | Hardly soluble | COCOc1cc(OC)c(OC)c2c1C(=O)OC2 [Compound 10] |  |  |
|  |  |  | 100 µL | 100 µL | 2000 µL | O=C1C=CC2(C=C1CO)OCCO2 [Compound 14] |  |  |
|  |  |  | 100 µL | 100 µL | 2400 µL | CC1(C)OCc2cc(OCCO)ccc2O1 [Compound 15] |  |  |
|  |  |  | 100 µL | 100 µL | 200 µL | COCCCCC(O)C(O)C(=O)OC (stereo not drawn) [Compound 16] |  |  |
|  |  |  | 40 µL | 40 µL | 4000 µL | Cc1oc2ccccc2c(=O)c1C [Compound 17] |  |  |
|  |  |  | 200 µL | 200 µL | 200 µL | CC(=O)OCC1OCCC(OC(C)=O)[C@@H]1OC(C)=O (stereo partly drawn) [Compound 18] |  |  |
